In US20220399129A1, “SYSTEMS AND METHODS FOR TERRAFORMING” (Flagship Pioneering Innovations VI, LLC, priority 2021, published 2022):

Tested on: primary human bronchial epithelial cells (HBECs)
Assay: ALI differentiation of HBECs with IL-13, immunofluorescence/histology readout
Format: cell-based
Settings: IL-13 treatment during ALI differentiation, day 14, 1 ng/mL
Protocol: FIG. 14A illustrates an experimental scheme of culturing the undifferentiated basal cells known as primary human bronchial epithelial cells (HBECs) at the air-liquid interface in the presence or absence of IL-13 and the perturbagens. […] Pseudostratified airway epithelium was formed by day 14 of ALI differentiation in the presence of 1 ng/mL of […]. Total mucus (AB/PAS), goblet cells (Muc5ac^+), and ciliated cells (acetyl α-tubulin^+) were visualized via immunofluorescence or histology. For histology analysis, the differentiated HBECs on day 14 of ALI were stained with AB/PAS, Muc5ac, and acetyl α-tubulin. […] Immunofluorescence allows for a top down view of the most apical layer of cells, while histology presents a cross-section of the pseudostratified epithelium and is amenable for image quantification.
Using scRNA-seq data, Compound B1 was predicted to inhibit goblet cells and promote club cells within the top 1.2% of compounds of the intervention library. […] Goblet and club cells were assessed by Muc5ac and Scgblal primers, respectively. […] Goblet and ciliated cells were assessed by Muc5ac and Foxj1 primers, respectively. […]
Pseudostratified airway epithelium was formed by day 14 of ALI differentiation. […] In addition, qPCR of ciliated (Foxj1) and goblet (Muc5ac) marker expression was used as a sensitive and quantitative readout of epithelial cell type distribution. […]

## IL-13: inflammatory signaling cytokine (R&D) used to induce goblet cell hyperplasia
  ciliated cells (acetyl α-tubulin+): reduces ciliated cells
  goblet cells (Muc5ac+), total mucus (AB/PAS): induces goblet cell hyperplasia
